# US6017958A, “Method of treating malignant tumors with thyroxine analogues having no significant hormonal activity” (Octamer, Inc., priority 1997, dated 2000)
# Key:
# MDA-MD-231 cells = assay: Inhibition of tumor cell growth; format: cell-based, human; settings: 3 days; for Cells (growth): control 0.95
# Experimental: MDA-MD-231 human cancer cells were obtained from the American Tissue Culture Collection (Rockville, Md.) and maintained in the recommended growth media. Cells were grown in the presence of various concentrations of Compounds 1 and 14 for 3 days at 37° C.
# [1] = system: microtubule protein (MTP); assay: Microtubule protein (MTP) polymerization optical test; format: biochemical, bovine or rabbit; settings: for Percent inhibition of initial velocity of microtubule assembly: 10 μM, 1 mM GTP, 37° C.
# Experimental: Preparation of MTP and an optical test for polymerization was adopted from published methods, Gaskin, et al., 1974, "Turbidimetric studies of the in vitro assembly and disassembly of porcine neurotubules", J. Mol. Biol. 89:737-758; Tiwari, et al., 1993, "A pH and temperature-dependent cycling method that doubles the yield of microtubule protein", Anal. Biochem. 215:96-103. Bovine or rabbit brain was homogenized in an equal volume of ice cold buffer containing 100 mM Pipes/K^+ (pH 7.4), 4 mM EGTA, 1 mM MgCl2, 0.5 mM DTT and 0.1 mM PMSF, and centrifuged at 39,000 g for 1 hour at 4° C. To the supernatant, DMSO (8% final concentration) and GTP (1 mM final concentration) were added, followed by incubation at 37° C. for 30 minutes. Microtubules were pelleted at 100,000 g at 37° C for 30 minutes. The pellets were incubated on ice for 15 minutes, followed by resuspension in ice cold PEM buffer (100 mM Pipes/K+(pH 6.9), 1 mM EGTA, 1 mM MgCl2). This warm polymerization and cold depolymerization cycle was repeated once more and the cold, resuspended monomeric MTP (8-10 mg/ml protein) was used for the optical test for polymerization kinetics. Both rabbit or bovine brain yielded identical MTP preparations.
# The composition of the optical test is described in the legends of Figures and Table 12. The polymerization reaction was started by the addition of 100 μl of MTP solution (equivalent to 0.8-1.0 mg protein) and initial linear rates of increase in absorbance at 350 nm followed and recorded at 37° C. (see FIG. 1) in a Perkin-Elmer 552 double beam spectrophotometer, equipped with a thermostatically controlled cuvette holder.
# […] Microtubule assembly at 37° C. was monitored at λ=350 nm and initial velocities were calculated as mA350 /min. […] The values are averages of duplicate assays.
# [2] = system: E-ras 20 cells (E-ras transformed bovine endothelial cells); assay: Tumorigenicity of pretreated E-ras 20 cells in athymic nude mice; format: in vivo, bovine cells in nude mice; settings: 10 μM, 4 days pretreatment; tumor size at day 25
# Experimental: E-ras transformed bovine endothelial cells (Bauer et al., 1996, Intl. J. Oncology 8:239-252) were exposed to 10 μM DIME for […]. The DIME-treated cells (10^5 or 10^6 cells/100 μL) were injected subcutaneously into nude mice and tumor progression followed for 25 days.
# Tumorigenicity of E-ras 20 Cells in athymic nude mice was assayed as described previously. Bauer et al., 1996, "Modification of growth related enzymatic pathways and apparent loss of tumorigenicity of a ras-transformed bovine endothelial cell line by treatment with 5-iodo-6-amino-1,2-benzopyrone (INH2 BP)" Intl. J. Oncol. 8:239-252. The in vivo antitumorigenic action of DIME was assayed on athymic mice inoculated with 10^6 MDA-MB-231 cells, as in the tumorgenicity assay. In about 10-14 days when subcutaneous tumors appeared, DIME treatment consisting of p.o. administration of DIME suspension (once a day) was commenced and continued for 28-32 days as reported, Kun et al., 1996, "Induction of tumor apotosis by methyl-3,5-diiodo-4-(4'-methoxyphenoxy) benzoate (DIME)", Abstract No. 102, Int. J. Oncol. 9:supplement 829.
# The structural specificity of DIME and its homologs and analogs can be assessed by examining Table 7 and Table 8. We have prepared 17 novel structural analogs of DIME and compared the antitumor activity of 10 of the compounds (Table 8) which appears sufficient to draw some general conclusions. The biological assay chosen was the determination of antitumorigenic action of the drugs on the in vivo tumorigenicity of E-ras cells in nude mice, Bauer et al., 1996, "Modification of growth related enzymatic pathways and apparent loss of tumorigenicity of a ras-transformed bovine endothelial cell line by treatment with 5-iodo-6-amino-1,2-benzopyrone (INH2 BP)" Intl. J. Oncol. 8:239-252. E-ras 20 cells (10^5 or 10^6) were incubated with 10 μM DIME or analogs for 4 days, then 10^5 and 10^6 cells were inoculated subcutaneously into nude mice (5 per test) and rates of tumor formation quantitated by direct tumor volume measurements (cf. 2). […] Identical antitumorigenic tests were performed with nine DIME analogs and taking the effect of DIME as 100% (comparing tumor sizes at day 25) the antitumor efficacy was calculated as percent of DIME activity. […] Results summarized in Table 8 illustrate that substituents in R1 and R2 determine antitumor efficacy.
# The efficacy of DIME analogs on in vivo tumorigenicity of Eras 20 cells i
# athymic mice was compared to that of DIME (compound 1) which was taken as
# 100, determining the size of tumor reduction at day 25. Pretreatment with
# DIME or its analogs (Table 7) was with 10 μM for 4 days prior to s.c.
# [3] = system: seven human cancer cell lines; assay: Cytocidal action on human cancer cell lines; format: cell-based
# Experimental: Seven human cancer cell lines were obtained from the American Tissue Culture Collection (Rockville, Md.) and maintained in the recommended growth media. Cells were seeded into wells (2 cm^2) at a density of 2×10^4 cells/cm^2. Various concentrations of Compounds 1-13 were added to the media at the time of seeding.
# The cultures were incubated for 72 hours at 37° C. (5% CO2 atmosphere). Following incubation, cells were detached with trypsin and counted in a hemocytometer.
# MDA-MB-231 cells = assay: Immunocytochemistry of mitotic spindle and spindle-associated proteins; format: cell-based, human; settings: 100 nM, 18 hrs; data not shown
# Experimental: Cells were fixed in methanol at -20° C. for 5 min. The primary antibody was mouse monoclonal anti-beta tubulin (Amersham) and secondary antibody from goat, conjugated to fluorescein isothiocyanate from Cappel (Durham, N.C., USA). The DNA of nuclei was stained by 10 min of incubation in 0.05 μg/ml 4'-6-diamidono-2-phenylindole (DAPI). Stained cells were viewed with either a Zeiss 40xPlan-Neofluar or a Nikon 60xPlanApo objective. For classification of cells in the mitotic phase, prophase and metaphase were combined into a single category, because it was difficult to distinguish late prophase from metaphase.
# In preliminary studies (data not shown) we have also studied the behavior of certain spindle-associated proteins by the immunocytologic technique.
# protein phosphatase 2A = assay: Activation of purified protein phosphatase 2A (32P-histone H1 dephosphorylation); format: biochemical; settings: 50 μM
# Experimental: 2.1 Preparation of ^32 P-labeled Histone H1 Substrate
# Histone H1 was phosphorylated with protein kinase C (Upstate Biotechnology,Inc., Lake Placid, N.Y.) in a volume of 100 μL according to standard protocols. Alternatively, histone H1 was phosphorylated with p34cdc2 kinase purified from rapidly multiplying Mytilus Edulis embryos at 4-8 stage after isolation with the p^13 -Suc agarose technique (Smythe and Newport, 1992, "Coupling of Mitosis to the Completion of S Phase in Xenopus Occurs via Modulation of the Tyrosine Kinase that Phosphorylates p34cdc2," Cell 68:787-797).
# 125 ng purified protein phosphatase 2A (Upstate Biotechnology, Inc., Lake Placid, N.Y.; Usui et al., 1983, J. Biol. Chem. 258:10455-10463) was preincubated with thyroxine analogue (50 μM) in buffer (20 mM MOPS or Tris, pH 7.5, 1 mM MgCl2, 60 μM β-mercaptoethanol) for 10 min. at 23° C. Total reaction volume was 20 μL. ^32 P-labeled histone H1 substrate (10 μg, 10^5 cpm) was added and the dephosphorylation reaction allowed to proceed for 5 min. at 23° C., after which time the reaction was quenched by addition of 2 μL Laeimli buffer. An identical reaction containing 125 ng untreated protein phosphatase 2A was run as a control.
# Phosphorylated and dephosphorylated histone H1 were separated by gel electrophoresis (12% SDS-PAGE), bands containing phosphorylated histone H1 excised and assayed for ^32 P activity via scintillation counter.
# The velocity of dephosphorylation in 5 min. is an indication of the initial velocity (Vinit) of the dephosphorylation reaction.
SMILES,Percent inhibition of initial velocity of microtubule assembly [1] [%],"Efficacy (inhibition of E-ras 20 tumorigenicity, DIME = 100) [2] [%]",further results
"COC(=O)c1cc(I)c(Oc2ccc(OC)cc2Cl)c(I)c1 [Compound 14, Methyl 3,5-diiodo-4-(2'-chloro-4'-methoxyphenoxy)benzoate]",–,–,Cells (growth) (MDA-MD-231 cells; 0.5 μM): 0.95 ×10^6; Cells (growth) (MDA-MD-231 cells; 1.0 μM): 0.71 ×10^6; Cells (growth) (MDA-MD-231 cells; 2.0 μM): 0.20 ×10^6; inhibitory activity as compared to DIME (MDA-MD-231 cells): about 25%
COC(=O)c1cc(I)c(Oc2ccc(OC(F)(F)F)cc2)c(I)c1 [Compound 18],7,–,–
"CCCCOc1ccc(Oc2c(I)cc(C(=O)OC)cc2I)cc1 [Compound 4, Methyl 3,5-diiodo-4-(4'-n-butoxyphenoxy)benzoate]",8,4,–
"COC(=O)c1cc(I)c(Oc2ccc(O)cc2)c(I)c1 [Compound 10, Methyl 3,5-diiodo-4-(4'-hydroxyphenoxy) benzoate]",–,14,–
"COc1ccc(Oc2c(I)cc(C(=O)O)cc2I)cc1 [Compound 6, 3,5-diiodo-4-(4'-methoxyphenoxy)benzoic acid]",0,45,inhibitory effect on MTP polymerization ([1]; methyl ester replaced): completely abolishes the inhibitory effect on MTP polymerization
"CCOC(=O)c1cc(I)c(Oc2ccc(OC)cc2)c(I)c1 [Compound 5, Ethyl 3,5-diiodo-4-(4'-methoxyphenoxy)benzoate]",35,83,activity in cellular assays and in vivo [3]: completely inactive
"COc1ccc(Oc2c(I)cc(C(=O)N(C)C)cc2I)cc1 [Compound 9, 3,5-diiodo-4-(4'-methoxyphenoxy)-N,N-dimethyl benzamide]",6,64,–
"CCOc1ccc(Oc2c(I)cc(C(=O)OC)cc2I)cc1 [Compound 2, Methyl 3,5-diiodo-4-(4'-ethoxyphenoxy)benzoate]",76,93,"Emax ([3]; 72 hours, human cancer cells, read-out: maximal cytocidal activity as compared to DIME): 25 to 30%"
"COc1ccc(Oc2c(I)cc(C(N)=O)cc2I)cc1 [Compound 7, 3,5-diiodo-4-(4'-methoxyphenoxy)benzamide]",43,53,–
"CNC(=O)c1cc(I)c(Oc2ccc(OC)cc2)c(I)c1 [Compound 8, 3,5-diiodo-4-(4'-methoxyphenoxy)-N-methyl benzamide]",–,22,–
"C=C1[C@@H](O)[C@@H]2O[C@]3(CC[C@H](/C=C/[C@@H](C)[C@@H]4CC(C)=C[C@@]5(O[C@H](C[C@@](C)(O)C(=O)O)CC[C@H]5O)O4)O3)CC[C@H]2O[C@@H]1[C@@H](O)C[C@H](C)[C@H]1O[C@@]2(CCCCO2)CC[C@H]1C [okadaic acid, reference compound]",–,–,cdc-2 kinase- and pp2a-spindle association (MDA-MB-231 cells): abolished only cdc-2 kinase- and pp2a-spindle association
"CCCOc1ccc(Oc2c(I)cc(C(=O)OC)cc2I)cc1 [Compound 3, Methyl 3,5-diiodo-4-(4'-n-propoxyphenoxy)benzoate]",–,44,"activation of protein phosphatase 2A (protein phosphatase 2A): did not activate; Activity/5 min (initial velocity of histone H1 dephosphorylation) (protein phosphatase 2A; 10 min preincubation, control 10217 ± 1708, average of three samples): 7521 ± 1562 cpm; activity in cellular assays and in vivo [3]: completely inactive"
